Where “and” joins values, the source holds several entries; their conditions need not be identical. Equal entries are not always repeated. Where two headings read alike, the source gives them in different places.
How the values were obtained:
H9 cells [1] = experiment: qHTS for survival of dissociated H9 cells (CellTiter-Glo, 24 hours after seeding); format: cell-based, human; conditions: for AC50: CellTiter-Glo 24 hours after seeding, read-out: AC50 (concentration at 50% efficacy)
Description: FIG. 2 schematically illustrates qHTS procedure.
All the screed compounds were received pre-plated at the pre-determined concentrations. […] Curve classification is explained in Huang et al. “Chemical genomics profiling of environmental chemical modulation of human nuclear receptors” Environ. Health. Perspect.

H9 cells [2] = experiment: Propidium iodide dead cell count of dissociated H9 cells; format: cell-based, human; conditions: 10 μM Y-27632 vs 50 nM Chroman 1; 12 hours after plating; EDTA or Accutase dissociation
Procedure: H9 cells were dissociated with 0.5 mM ethylenediaminetetraacetic acid (EDTA) or Accutase (enzymatic dissociation) according to standard procedures and seeded into vitronectin coated 6-well plates. Phase-contrast and fluorescence microscopy digital images were taken 12 hours after cell plating (data not shown). To generate the fluorescence microscopy images, live cells were stained with Calcein (0.5 μg/ML; Thermo Fisher Scientific, catalog number: C34852), and dead cells were stained with propidium iodide (PI; 500 nM; Thermo Fisher Scientific, catalog number: P3566). For quantitative analysis, the cells were counted using an automated cell counter (Cellometer Auto 2000, Nexcelom). The results of PI staining are illustrated in the bar graph shown in the right panel of FIG. 5.

human kinases = experiment: Kinase profiling, HotSpot Kinase Assay; format: biochemical; conditions: Y-27632 at 10 μM, Chroman 1 at 50 nM; for specificity / off-target inhibition: under 10% of original activity deemed significant
Description: The results of kinase profiling experiments are illustrated in FIG. 8. […] The phylogenic trees of human kinases were generated based on a neighbor-joining tree via ClustalW software derived from multiple protein sequence alignment of human kinase domains (Manning et al., “The protein kinase complement of the human genome” Science 298:1912-1934 (2002)).

H9 cells [3] = experiment: Cell survival after routine passage (caspase 3/7 imaging, CTG); format: cell-based, human; conditions: 100,000 cells per cm^2; 10 μM Y-27632, 50 nM Chroman 1, 5 μM Emricasan
OCT4 expressing cells = experiment: Microscopy of stress mechanisms during cell passaging; format: cell-based; conditions: 3 hours post-plating
Procedure: The scale bars shown are 10 μm. Upper panel illustrates confocal microscopic analysis of the lamin B1-GFP iPSC reporter line (Allen Insitute for Cell Science, Seattle, Wash.) displaying dramatic morphological differences in nuclear shape during cell passaging (30 min after plating). […] Lower panel illustrates dramatic cytoskeletal differences during cell passaging (3 hours post-plating), as measured by immunocytochemistry against actin and myosin.

hESCs (H9) = experiment: Western blot of hESCs after passaging; format: cell-based, human; conditions: 3 hours post-passage
Description: GAPDH was used as a loading control and house-keeping protein control.
Higher observed levels of phosphorylated CHK2 on threonine 68 indicated cell cycle arrest.

H9 cells [4] = experiment: Embryoid body formation assays; conditions: AggreWell plates, 24 hours after seeding
Procedure: In one series of experiments, H9 cells were dissociated with Accutase. […] Embryoid body (EB) formation was examined 24 hours after cell seeding.
In a different experimental approach (data not shown), a defined number of H9 cells was plated into AggreWell™ plates (StemCell Technologies, Vancouver, Canada) to generate single EBs per well. Embryoid body (EB) formation was examined 24 hours after cell seeding.
Pluripotent stem cells (WA09, also called H9 cells, obtained from WiCell, Madison, Wis.) dissociated with Accutase were seeded into AggreWell™ plates (StemCell Technologies, Vancouver, Canada) to generate EBs. Bright field images were taken 24 hours after seeding.
H9 cells dissociated with Accutase were seeded into 96-well plates (ultra-low attachment) to generated EBs. After 24 hours, calcein (green staining, live cells) and PI (red staining, dead cells) were added to the cell culture medium to visualize live and dead cells in the wells.

H9 cells [5] = experiment: Low seeding density screen for synergy with Chroman 1 and Emricasan; format: cell-based, human; conditions: validation of qHTS hits
Procedure: To extend and maximize the use of Chroman 1 and Emricasan for low cell seeding density conditions and single cell cloning, we developed another combinatorial screening strategy. Experimental studies were performed that identified Trans-ISRIB and polyamines as additional cell survival-promoting factors. An assay was developed to screen for compounds that are capable of overcoming cellular stress associated with low cell seeding density. The experiments aimed to define the detection limit and signal strength of the CTG assay in order to detect single cells per well. H9 cells (obtained from WiCell) were used.
Dissociated stem cells were plated onto vitronectin-coated 1536-well plates at the per-well densities indicated on the X-axis. All the plates were prepared in duplicates. One set of plates was read with CTG right after dispensing (r1), and the other set was read 24 hours after (r2). The CTG fold change plotted on Y-axis was calculated as the ratio of r2 to r1 (r2/r1) to reflect cell survival and growth within 24 hours. […] The middle line within the box is the median cell growth. The upper and lower box hinges represent the 75th and 25th percentiles, whereas the upper and lower whiskers extend from the box hinge to the largest or lowest value no further than 1.5× distance between 25th and 75th percentile.

H9 cells [6] = experiment: Colony formation at 25 cells/cm2; format: cell-based, human
Procedure: The experiments were performed validating the “hits” obtained from the primary screening. Pluripotent stem cells (H9 cells obtained from WiCell) were dissociated using TrypLE (Thermo-Fisher) and seeded into 6-well plates at a density of 25 cells/cm′.
Whole-well images (6-well plate) were captured with calcein green (0.5 μg/mL; Thermo Fisher Scientific, catalog number: C34852).
Systematic comparison of small molecule combinations and their effect on colony number and colony size of hESCs plated on vitronectin at 25 cells/cm^2 in StemFlex medium was performed. The quantification of the colony formation rate and median colony size was performed 6 days after plating.

H9 cells [7] = experiment: Combinatorial matrix screening for synergistic effects on cell survival; format: cell-based, human; conditions: 10×10 matrix, normalized to 10 μM Y-27632
Procedure: Combinatorial matrix screening was performed to identify the compounds with synergistic effects on cell survival. Focusing on the compounds with different mechanisms of action, 29 compounds were selected for combinational matrix screening, resulting in 812 sets of 10×10 checkerboard matrix experiments (data not shown), four of which are illustrated in FIG. 9. The concentrations of the compounds for combinational matrix screening were optimized based on the slope and potency (AC50) derived from single-agent qHTS dose-response curves, so that the matrix screen covered a wide range of biological effect observed in the cell viability assay. […] The numerals in each 10×10 matrix show the maximum survival achieved with the indicated combinations or single agents. The maximum survival achieved by each pair of compounds is represented by the highest numbers in each 10×10 matrix, the examples of which are shown in FIG. 9. The bottom matrices depict the synergy matrix calculated using highest-single agent (HSA) model. The HSA synergy assesses the pro-survival benefit of compound combination compared to single agent alone, which was computed as the difference between cell survival out of combination and that from the best single agent at each tested concentration. Synergy is defined as the difference between the combination and max response with single agent (synergy=combination max (single agent A, single agent B).

H9 cells [8] = experiment: Survival and attachment of single-cell dissociated cells (CellTiter-Glo, time-lapse imaging); format: cell-based, human; conditions: 50 nM Chroman 1, 5 μM Emricasan; vitronectin-coated plates, over 24 hours
Procedure: CellTiter-Glo® assay was used to quantify viable […] cells 24 hours post-plating (100,000 cells/[…]). […] Cellular stress was already apparent 20 minutes after plating in the presence of Emricasan, which ultimately led to dead cells at 24 hours.

H9 cells [9] = experiment: Dose-response curves of selected ROCK inhibitors, cell survival (CTG); format: cell-based, human; conditions: four replicates, normalized to CTG reading at 10 μM Y-27632
Description: Molar concentrations of the selected ROCK inhibitors are plotted on the X-axis (log scale). […] Thusly normalized data were plotted on the Y-axis.

ROCK1 = target: T1, ROCK1 (Homo sapiens, UniProt Q13464); experiment: HotSpot Kinase Assay (Reaction Biology) ROCK1; format: biochemical
T1 construct: purchased Reaction Biology Corporation (Malvern, Pa.)

H9 cells [10] = experiment: Long-term passaging of H9 cells (40 passages); format: cell-based, human; conditions: 24 hours treatment at every passage
[11] = Homo sapiens, H9, 24 h, H9 cell survival normalized to 10 μM Y-27632 (taken to be 100%), read-out: Max (maximum activity value from all tested concentrations)
[12] = Homo sapiens, H9, 24 h, H9 cell survival, normalized to 10 μM Y-27632, read-out: Efficacy (activity range between predicted activities at zero and infinite doses, Hill equation)
[13] = H9 cell survival normalized to 10 μM Y-27632 (taken to be 100%)
[14] = H9 cell survival, normalized to 10 μM Y-27632

T1 sequence (Q13464 whole entry): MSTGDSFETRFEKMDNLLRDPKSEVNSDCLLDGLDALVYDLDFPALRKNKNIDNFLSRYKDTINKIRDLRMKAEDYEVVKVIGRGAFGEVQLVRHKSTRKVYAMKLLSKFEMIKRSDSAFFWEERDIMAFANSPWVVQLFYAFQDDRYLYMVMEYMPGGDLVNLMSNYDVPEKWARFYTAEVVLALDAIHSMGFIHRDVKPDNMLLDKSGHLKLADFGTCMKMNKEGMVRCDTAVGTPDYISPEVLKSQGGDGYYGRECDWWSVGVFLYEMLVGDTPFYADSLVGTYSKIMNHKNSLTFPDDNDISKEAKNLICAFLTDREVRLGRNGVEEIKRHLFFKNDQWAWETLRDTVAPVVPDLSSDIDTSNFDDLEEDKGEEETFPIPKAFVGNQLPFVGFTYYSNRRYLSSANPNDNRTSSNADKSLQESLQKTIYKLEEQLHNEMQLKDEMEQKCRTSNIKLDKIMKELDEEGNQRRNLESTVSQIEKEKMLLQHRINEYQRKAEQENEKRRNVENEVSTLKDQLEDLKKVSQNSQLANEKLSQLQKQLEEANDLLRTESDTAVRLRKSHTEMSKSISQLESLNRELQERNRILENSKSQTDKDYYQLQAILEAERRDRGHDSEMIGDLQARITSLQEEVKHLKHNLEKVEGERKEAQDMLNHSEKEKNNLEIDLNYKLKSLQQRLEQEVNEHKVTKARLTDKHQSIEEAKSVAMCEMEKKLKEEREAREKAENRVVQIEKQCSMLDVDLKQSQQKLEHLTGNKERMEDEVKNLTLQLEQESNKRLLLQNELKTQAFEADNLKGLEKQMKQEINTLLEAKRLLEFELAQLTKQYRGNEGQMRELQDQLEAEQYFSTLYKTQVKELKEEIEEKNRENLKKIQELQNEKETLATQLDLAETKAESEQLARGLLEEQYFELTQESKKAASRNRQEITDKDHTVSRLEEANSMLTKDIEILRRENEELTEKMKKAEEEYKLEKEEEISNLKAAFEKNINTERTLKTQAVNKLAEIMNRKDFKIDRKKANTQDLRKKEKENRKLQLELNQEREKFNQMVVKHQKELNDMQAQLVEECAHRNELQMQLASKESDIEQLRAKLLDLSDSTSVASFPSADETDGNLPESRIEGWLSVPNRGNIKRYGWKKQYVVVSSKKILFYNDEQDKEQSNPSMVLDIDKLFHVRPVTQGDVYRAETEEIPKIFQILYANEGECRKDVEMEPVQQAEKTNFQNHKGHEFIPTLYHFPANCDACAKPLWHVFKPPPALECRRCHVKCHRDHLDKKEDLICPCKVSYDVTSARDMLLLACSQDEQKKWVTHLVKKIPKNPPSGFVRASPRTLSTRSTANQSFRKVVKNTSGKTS

Row | Structure (SMILES) | Emax (H9 cells [1]; [11]) [%] | Emax (H9 cells [1]; [12]) [%] | primary targets (human kinases) | specificity / off-target inhibition (human kinases) | cell survival after single-cell dissociation (H9 cells [3]) | single EB formation and dead cells (H9 cells [4]) | synergy with Chroman 1 on cell survival (HSA model) (H9 cells [7]) | cell attachment and survival in time-lapse imaging (H9 cells [8]) | Max (maximum activity value from all tested concentrations) (H9 cells [1]; [13]) | Efficacy (activity range between predicted activities at zero and infinite doses, Hill equation) (H9 cells [1]; [14]) | also measured
1 | C[C@@H](N)[C@H]1CC[C@H](C(=O)Nc2ccncc2)CC1 [Y-27632] | 95.5 | 96.2 | ROCK1 and ROCK2 | a number of off-targets, including PKCeta (also known as PKC η or PRKCH), PKCepsilon (also known as PKC ε or PRKCE), PKCdelta (also known as PKC δ or PRKCD), PKN1, PKN2 and PRKX | beneficial | Dead cells surrounded the EBs |  |  |  |  | number of propidium iodide-positive dead cells (H9 cells [2]): higher number of dead cells than Chroman 1 treatment; cytoskeleton (actin, myosin immunocytochemistry) (OCT4 expressing cells): form prominent actin stress fibers at the colony edge; γH2AX immunoreactivity (OCT4 expressing cells): immunoreactive for γH2AX; phosphorylated eIF2A at serine 51 (hESCs (H9)): High levels of p-eIF2A(S51); stress response markers (γH2AX, ATF4) (hESCs (H9)): Strong stress response
2 | O=C(COc1ccc(Cl)cc1)N[C@H]1CC[C@H](NC(=O)COc2ccc(Cl)cc2)CC1 [trans-ISRIB, N,N′-((1r,4r)-cyclohexane-1,4-diyl)bis(2-(4-chlorophenoxy)acetamide)] |  |  |  |  |  |  |  |  |  |  | cell survival at low density combined with 50 nM Chroman 1 and 5 μM Emricasan (H9 cells [5]): cell survival-promoting effect; cell survival when added to the combination of Chroman 1 and Emricasan (H9 cells [6]): further improved cell survival
3 | C[C@H](NC(=O)C(=O)Nc1ccccc1C(C)(C)C)C(=O)N[C@@H](CC(=O)O)C(=O)COc1c(F)c(F)cc(F)c1F [Emricasan, 3-(2-(2-tert-butylphenylaminooxalyl)aminopropionylamino)-4-oxo-5-(2,3,5,6-tetrafluorophenoxy)pentanoic acid] |  |  |  |  |  | did not result in proper cell aggregation and EB formation | synergistic with Chroman 1 | not sufficient to improve cell viability beyond 24 hours |  |  | Emax (H9 cells [1]; Homo sapiens, H9, 24 h, read-out: Efficacy (activity range between predicted activities at zero and infinite doses, Hill equation)): 95.8%; Emax (H9 cells [1]; Homo sapiens, H9, 24 h, read-out: Max (maximum activity value from all tested concentrations)): 76.4%; AC50 (H9 cells [1]; Homo sapiens, H9 cell survival): 33200 nM
4 | Cc1ccc2c(c1)C(=O)C1(O)CCN(c3ccccc3)C1=N2 (single isomer, unassigned; (-)) [(−)-Blebbistatin] |  |  |  |  |  |  | lacking synergy |  | 90.71% and 107.8% | 105 and 96 | 
5 | CC(C)[C@H](NC(=O)c1ccc2ccccc2n1)C(=O)N[C@@H](CC(=O)O)C(=O)COc1c(F)cccc1F [Q-VD-OPh hydrate] |  |  |  |  |  |  | synergistic with Chroman 1 |  | 93.54% | 85.9 | AC50 (H9 cells [1]; H9 cell survival): 1170 nM
6 | COc1ccc2c(c1)C[C@H](C(=O)Nc1ccc(-c3cn[nH]c3)cc1OCCN(C)C)CO2 [Chroman 1, (3S)—N-{2-[2-(Dimethylamino)ethoxy]-4-(1H-pyrazol-4-yl)phenyl}-6-methoxy-3,4-dihydro-2H-1-benzopyran-3-carboxamide] | 110 | 108 | ROCK1 and ROCK2 | higher specificity | further improved cell survival | amount of dead cells was significantly lower |  | cell attachment already 20 min after plating |  |  | AC50 (H9 cells [1]; Homo sapiens, H9, 24 h, H9 cell survival): 290 nM; potency in dose-response of cell survival (H9 cells [9]): more potent than to Y-27632, Thiazovivin or Fasudil; IC50 against ROCK1 (comparison in words) (ROCK1): more potent ROCK inhibitor than Y-27632; karyotype after long-term passaging (H9 cells [10]): maintained a normal karyotype

From patent publication US20210348119A1, “COMPOSITIONS AND METHODS FOR CELL CULTURE” (The United States of America as Represented By The …, priority 2018, published 2021)
